Test results from patent US20080293727A1, “Novel sulfonamide inhibitors of aspartyl protease” (priority 1992, published 2008).

These molecules were tested against HIV-1 protease (Human immunodeficiency virus type 1 group M subtype B, UniProt P04585) (assay: Inhibition constants against HIV-1 protease (method of Pennington et al.)). Details: HIV-1 protease; read-out: Ki value.
Format: biochemical
Source text: We measured the inhibition constants of the compounds listed in Table VII against HIV-1 protease using the above-cited method of Pennington et al.

Going from `Cc1nc(C)c(S(=O)(=O)N(CC(C)C)C[C@@H](O)[C@H](Cc2ccccc2)NC(=O)OC(C)(C)C)s1` [Compound 46] to `CC(C)CN(C[C@@H](O)[C@H](Cc1ccccc1)NC(=O)OC(C)(C)C)S(=O)(=O)c1ccc(F)cc1F` [Compound 49], the Ki falls from 154 nM to 9 nM (17-fold). The second binds more tightly here.

Going from `CC(=O)Nc1ccc(S(=O)(=O)N(CC(C)C)C[C@@H](O)[C@H](Cc2ccccc2)NC(=O)O[C@H]2CCOC2)cc1` [Compound 48, N-(4-(((2 syn,3S)-2-Hydroxy-4-phenyl-3-((S)-tetrahydrofuran-3-yloxycarbonylamino)-butyl)-isobutyl-sulfamoyl)-phenyl)-acetamide] to `CC(=O)Nc1ccc(S(=O)(=O)N(CC(C)C)C[C@@H](O)[C@H](Cc2ccccc2)NC(=O)O[C@H]2CCOC2)cc1Cl` [Compound 53], the Ki rises from 1.4 nM to 27 nM (19-fold).

First: CC(=O)Nc1cc(S(=O)(=O)N(CC(C)C)C[C@@H](O)[C@H](Cc2ccccc2)NC(=O)OC(C)(C)C)ccc1F [Compound 54]
Second: CC(C)CN(C[C@@H](O)[C@H](Cc1ccccc1)NC(=O)OC(C)(C)C)S(=O)(=O)c1ccc2nonc2c1 [Compound 64]
The Ki of the first is 7.3-fold higher: 22 nM for the first, 3 nM for the second.

First: CC(=O)Nc1cc(S(=O)(=O)N(CC(C)C)C[C@@H](O)[C@H](Cc2ccccc2)NC(=O)c2cc(C(C)(C)C)nn2Cc2ccccc2)ccc1F [Compound 55]
Second: CC(=O)Nc1ccc(S(=O)(=O)N(CC(C)C)C[C@@H](O)[C@H](Cc2ccccc2)NC(=O)OCc2ccccc2)cc1 [Compound 61]
The Ki of the first is 110-fold higher: 430 nM for the first, 4 nM for the second.

First: CC(C)CN(C[C@@H](O)[C@H](Cc1ccccc1)NC(=O)O[C@@H](C)c1ccccc1)S(=O)(=O)c1cccc2nonc12 [Compound 56]
Second: CC(C)CN(C[C@@H](O)[C@H](Cc1ccccc1)NC(=O)O[C@H](C)c1ccccc1)S(=O)(=O)c1cccc2nonc12 [Compound 59]
The Ki of the first is 3.4-fold lower: 60 nM for the first, 206 nM for the second.

Going from `CC(C)CN(C[C@@H](O)[C@H](Cc1ccccc1)NC(=O)COc1ccccc1)S(=O)(=O)c1cccc2nonc12` [Compound 57] to `CC(C)CN(C[C@@H](O)[C@H](Cc1ccccc1)NC(=O)OC(C)(C)C)S(=O)(=O)c1cccc2nonc12` [Compound 58], the Ki falls from 200 nM to 34 nM (5.9-fold). The second binds more tightly here.

Going from `CC(C)CN(C[C@@H](O)[C@H](Cc1ccccc1)NC(=O)O[C@H]1CCOC1)S(=O)(=O)c1cccc2nonc12` [Compound 60] to `CC(C)CN(C[C@@H](O)[C@H](Cc1ccccc1)NC(=O)O[C@H]1CCOC1)S(=O)(=O)c1ccc2nonc2c1` [Compound 66], the Ki falls from 4 nM to 0.4 nM (10-fold).

First: CC(C)CN(C[C@@H](O)[C@H](Cc1ccccc1)NC(=O)OCc1ccccc1)S(=O)(=O)c1ccc(N)c([N+](=O)[O-])c1 [Compound 63]
Second: CC(C)CN(C[C@@H](O)[C@H](Cc1ccccc1)NC(=O)OCc1ccccc1)S(=O)(=O)c1ccc2nonc2c1 [Compound 65]
The Ki of the first is 10-fold higher: 7 nM for the first, 0.7 nM for the second. The second binds more tightly here.

First: CC(=O)Nc1ccc(S(=O)(=O)N(CC(C)C)C[C@@H](O)[C@H](Cc2ccccc2)NC(=O)C(NC(N)=O)NC(N)=O)cc1 [Compound 67]
Second: CC(=O)Nc1cc(S(=O)(=O)N[C@@H](Cc2ccccc2)[C@H](O)CN(CC(C)C)S(=O)(=O)c2ccc(F)c(NC(C)=O)c2)ccc1F [Compound 70]
The Ki of the first is 300-fold higher: 7400 nM for the first, 25 nM for the second.

First: CC(C)CN(C[C@@H](O)[C@H](Cc1ccccc1)NC(=O)O[C@H]1CCOC1)S(=O)(=O)N(C)C [Compound 69]
Second: CC(C)CN(C[C@@H](O)[C@H](Cc1ccccc1)NS(=O)(=O)N(C)C)S(=O)(=O)N(C)C [Compound 72]
The Ki of the first is 95-fold lower: 42 nM for the first, 4000 nM for the second. The first binds more tightly here.

Compared with `CC(C)CN(C[C@@H](O)[C@H](Cc1ccccc1)NS(=O)(=O)N(C)C)S(=O)(=O)c1cccc2nonc12` [Compound 71], `C=CCOC(=O)N[C@@H](Cc1ccccc1)[C@H](O)CN(CC(C)C)S(=O)(=O)c1ccc(Cl)c(Cl)c1` [Compound 81] is 200-fold lower in Ki: 470 nM for the first, 2.3 nM for the second.

First: COc1ccc(OC)c(S(=O)(=O)N[C@@H](Cc2ccccc2)[C@H](O)CN(CC(C)C)S(=O)(=O)c2ccc(F)c(NC(C)=O)c2)c1 [Compound 73]
Second: CC(C)(C)OC(=O)N[C@@H](Cc1ccccc1)[C@H](O)CN(CC1CC1)S(=O)(=O)c1ccc(F)cc1 [Compound 74]
The Ki of the first is 13-fold higher: 140 nM for the first, 11 nM for the second.
